This is an account of results in US5089623A, “Certain imidate insecticides” (Imperial Chemical Industries Plc, priority 1990, dated 1992).

What all share (assay type): in vivo
Test [1] has as its system Housefly [Musca domestica]. As to the kind of experiment: Housefly insecticidal test (HF). The note with it: per 25 female houseflies, 48 hours.
For test [2], the system named is Maize weevil [Sitophilus Zeamais (Motschulsky)]. As to the kind of experiment: Maize weevil test (MW). The note with it: adult weevils, treated corn seeds, 48 hours, percent in solution. On the procedure:
The compounds in Tables 1 and 2 above were tested for insecticidal activity using the following testing procedures. LC50 values, based on the results of these tests and calculated according to dosage-mortality curves, are expressed in Table 3.
Maize weevil [Sitophilus Zeamais (Motschulsky)]
Test compounds were diluted in a 50:50 acetone:water solution. Four corn seeds [Zea mays (L.)] which had been immersed in test solutions for 2-3 seconds and allowed to dry were placed in containers together with 10 adult weevils. The containers were covered and kept at a temperature of about 25° C. Mortality was recorded after 48 hours. Test concentrations ranged from 0.01% down to that at which 50% mortalilty occurred. The LC50 values are expressed below in Table 3 under the heading "MW" in terms of percent of the test compound in solution.

The test system of test [3] is Tobacco Budworm [Heliothis virescens (Fabricius)] eggs. As to the kind of experiment: Tobacco budworm egg test (TBW-E). The following applies: percent in solution.
The subject of test [4] is Cabbage Looper [Trichoplusia ni (Hubner)]. As to the kind of experiment: Cabbage looper test (CL). The following applies: second-instar larvae, 3-5 days, percent in solution.

In the case of `CC(C)C(=Nc1ccc(OC(F)(F)F)cc1)OCc1cccc(Oc2ccccc2)n1` [Compound 550], in test [1], the “LC50 HF” value was under 100 µg. In test [2], the “LC50 MW” value was over 0.01%. For the same molecule, the “LC50 TBW E” value in test [3] was over 0.1%. The “LC50 CL” value in test [4] is given as 0.00034%.
Turning to `COc1ccc(N=C(OCc2ccc(F)c(Oc3ccc(Cl)cc3)c2)C(C)C)cc1Cl` [Compound 410], the “LC50 HF” value in test [1] is under 100 µg. In test [2], the “LC50 MW” value is over 0.01%. Further, in test [3], the “LC50 TBW E” value is reported as over 0.1%. For the same molecule, the “LC50 CL” value in test [4] is over 0.1%.
`CC(C)C(=Nc1ccc(F)c(I)c1)OCc1cccc(Oc2ccc(F)cc2)c1` [Compound 449]: the “LC50 HF” value in test [1] is 13 µg. Also, in test [2], the “LC50 MW” value was 0.0075%. Moreover, the “LC50 TBW E” value in test [3] is 0.025%. In test [4], the “LC50 CL” value was found to be 0.0001%.
Turning to `CC(C)C(=Nc1cccc(C(F)(F)F)c1)OCc1coc(Cc2ccccc2)c1` [Compound 482], the “LC50 HF” value in test [1] amounted to 36 µg. Besides, the “LC50 MW” value in test [2] is given as over 0.01%. In addition, in test [3], the “LC50 TBW E” value is recorded as over 0.1%. Further, the “LC50 CL” value in test [4] is recorded as 0.01%.
For `Clc1ccc(N=C(OCc2cccc(Oc3ccccc3)c2)C2CCC2)cc1` [Compound 8], the “LC50 HF” value in test [1] is 50 µg. In addition, the “LC50 MW” value in test [2] is reported as over 0.01%. Further, the “LC50 TBW E” value in test [3] was over 0.01%. Moreover, in test [4], the “LC50 CL” value was 0.01%.
For `CC(Br)C(=Nc1ccc2c(c1)OCO2)OCc1cccc(Oc2ccccc2)c1` (centres unmarked) [Compound 306], the “LC50 HF” value in test [1] is over 100 µg. In addition, the “LC50 MW” value in test [2] is reported as over 0.01%. Further, the “LC50 TBW E” value in test [3] is 0.1%. The “LC50 CL” value in test [4] is 0.005%.
With `CC(C)C(=Nc1cccc(F)c1)OCc1ccc(F)c(Oc2ccc(F)cc2)c1` [Compound 342], the “LC50 HF” value in test [1] worked out at 4.1 µg. Further, in test [2], the “LC50 MW” value is reported as over 0.01%. Also, in test [3], the “LC50 TBW E” value came out at 0.04%. For the same molecule, in test [4], the “LC50 CL” value is reported as 0.0008%.
Take `CC(C)C(=Nc1ccc([N+](=O)[O-])c(C(F)(F)F)c1)OCc1cccc(Oc2ccccc2)c1` [Compound 307]: the “LC50 HF” value in test [1] is over 100 µg. Also, the “LC50 MW” value in test [2] is listed as over 0.01%. The “LC50 TBW E” value in test [3] came out at 0.08%. For the same molecule, the “LC50 CL” value in test [4] turned out to be 0.002%.
On to `COc1ccc(N=C(OCc2ccc(F)c(Oc3ccc(F)cc3)c2)C(C)C)cc1Cl` [Compound 408], for which, in test [1], the “LC50 HF” value is under 100 µg. The “LC50 MW” value in test [2] is reported as over 0.01%. The “LC50 TBW E” value in test [3] stood at 0.02%. Further, in test [4], the “LC50 CL” value came to 0.0015%.
With `CC(C)C(=Nc1cccc(Cl)c1)OCc1ccc(F)c(Oc2ccc(F)cc2)c1` [Compound 341], the “LC50 HF” value in test [1] was found to be 4 µg. The “LC50 MW” value in test [2] is on record as over 0.01%. For the same molecule, in test [3], the “LC50 TBW E” value came to 0.023%. For the same molecule, the “LC50 CL” value in test [4] turned out to be 0.0005%.
As to `CC(C)C(=Nc1cccc(OC(F)(F)F)c1)OCc1ccc(F)c(Oc2ccccc2)c1` [Compound 437], the “LC50 HF” value in test [1] was under 100 µg. The “LC50 MW” value in test [2] is over 0.01%. Moreover, the “LC50 TBW E” value in test [3] was 0.025%. In addition, the “LC50 CL” value in test [4] is given as 0.00075%.
Consider `Cc1cc(N=C(OCc2ccc(F)c(Oc3ccc(F)cc3)c2)C(C)C)ccc1F` [Compound 396], for which the “LC50 HF” value in test [1] is under 100 µg. The “LC50 MW” value in test [2] was over 0.01%. The “LC50 TBW E” value in test [3] is under 0.1%. Besides, in test [4], the “LC50 CL” value was 0.0017%.
For the molecule `CC(C)C(=Nc1ccc(OCC(F)(F)F)c(Cl)c1)OCc1ccc(F)c(Oc2ccccc2)c1` [Compound 424], in test [1], the “LC50 HF” value was over 100 µg. The “LC50 MW” value in test [2] is on record as over 0.01%. In addition, in test [3], the “LC50 TBW E” value came to 0.035%. The “LC50 CL” value in test [4] worked out at 0.00038%.
The matching figures for `Fc1ccc(COC(=Nc2ccc(C(F)(F)F)cc2)C2CC2)cc1Oc1ccc(Cl)cc1` [Compound 444]: over 100 µg, over 0.01%, 0.023% and 0.00015%.
